{"source": "paper PMC11012124", "about": "“Synthesis of Novel Triazine-Based Chalcones and 8,9-dihydro-7H-pyrimido[4,5-b][1,4]diazepines as Potential Leads in the Search of Anticancer, Antibacterial and Antifungal Agents” (International Journal of Molecular Sciences, 2024)", "key": {"60 cancer cell lines": {"system": "60 cancer cell lines", "experiment": "NCI-60 one-dose screen (10 μM)", "format": "cell-based", "conditions": "Homo sapiens; one dose of 10 μM, mean over 60 cancer cell lines; read-out: Mean Growth Percent (MGP)"}, "[1]": {"system": "M. tuberculosis ATCC 27294", "experiment": "Antitubercular broth microdilution MIC", "format": "cell-based", "conditions": "Mycobacterium tuberculosis; M. tuberculosis ATCC 27294 (H37Rv); read-out: Minimum inhibitory concentration (MIC)"}, "[2]": {"experiment": "Hemolytic activity, spectrophotometric", "format": "cell-based, human", "conditions": "human, human red blood cells (huRBC), 5% hematocrit, 200 μg/mL, 37 °C"}, "RPMI-8226": {"system": "RPMI-8226", "experiment": "cells", "conditions": "Homo sapiens, RPMI-8226, 48 h"}, "HOP-62": {"system": "HOP-62", "experiment": "cells", "conditions": "Homo sapiens, HOP-62, 48 h"}, "NCI-H226": {"system": "NCI-H226", "experiment": "cells", "conditions": "Homo sapiens, NCI-H226, 48 h"}, "NCI-H23": {"system": "NCI-H23", "experiment": "cells", "conditions": "Homo sapiens, NCI-H23, 48 h"}, "NCI-H322M": {"system": "NCI-H322M", "experiment": "cells", "conditions": "Homo sapiens, 48 h"}, "HCT-15": {"system": "HCT-15", "experiment": "cells", "conditions": "Homo sapiens, HCT-15, 48 h"}, "SW-620": {"system": "SW-620", "experiment": "cells", "conditions": "Homo sapiens, SW-620, 48 h"}, "SF-295": {"system": "SF-295", "experiment": "cells", "conditions": "Homo sapiens, SF-295, 48 h"}, "MALME-3M": {"system": "MALME-3M", "experiment": "cells", "conditions": "Homo sapiens, 48 h"}, "MDA-MB-435": {"system": "MDA-MB-435", "experiment": "cells", "conditions": "Homo sapiens, MDA-MB-435, 48 h"}, "IGROV1": {"system": "IGROV1", "experiment": "cells", "conditions": "Homo sapiens, IGROV-1, 48 h"}, "OVCAR-4": {"system": "OVCAR-4", "experiment": "cells", "conditions": "Homo sapiens, OVCAR-4, 48 h"}, "OVCAR-5": {"system": "OVCAR-5", "experiment": "cells", "conditions": "Homo sapiens, OVCAR-5, 48 h"}, "OVCAR-8": {"system": "OVCAR-8", "experiment": "cells", "conditions": "Homo sapiens, OVCAR-8, 48 h"}, "NCI/ADR-RES": {"system": "NCI/ADR-RES", "experiment": "cells", "conditions": "Homo sapiens, 48 h"}, "SK-OV-3": {"system": "SK-OV-3", "experiment": "cells", "conditions": "Homo sapiens, SK-OV-3, 48 h"}, "ACHN": {"system": "ACHN", "experiment": "cells", "conditions": "Homo sapiens, 48 h"}, "RXF 393": {"system": "RXF 393", "experiment": "cells", "conditions": "Homo sapiens, RXF 393, 48 h"}, "TK-10": {"system": "TK-10", "experiment": "cells", "conditions": "Homo sapiens, TK-10, 48 h"}, "DU-145": {"system": "DU-145", "experiment": "cells", "conditions": "Homo sapiens, DU-145, 48 h"}, "MCF7": {"system": "MCF7", "experiment": "cells", "conditions": "Homo sapiens, MCF7, 48 h"}, "BT-549": {"system": "BT-549", "experiment": "cells", "conditions": "Homo sapiens, BT-549, 48 h"}}, "data": [{"molecule": "CN(C)c1nc(NCCNS(=O)(=O)c2ccc(C(=O)/C=C/c3ccc(C(F)(F)F)cc3)cc2)nc(Nc2ccc(F)cc2)n1", "note": "[24g]", "values": [{"measurement": "activity at 10 µM", "setting": "60 cancer cell lines", "value": -27.2, "unit": "%"}, {"measurement": "MIC", "setting": "[1]", "value": 50, "unit": "µg/mL"}, {"measurement": "hemolysis at 24 h, 200 µg/mL", "setting": "[2]", "value": 0.8, "unit": "%"}, {"measurement": "GI50", "setting": "RPMI-8226", "value": 3, "unit": "µM"}, {"measurement": "CC50", "setting": "RPMI-8226; read-out: LC50", "value": "> 100", "unit": "µM"}, {"measurement": "GI50", "setting": "HOP-62", "value": 13.6, "unit": "µM"}, {"measurement": "CC50", "setting": "HOP-62; read-out: LC50", "value": 27.7, "unit": "µM"}, {"measurement": "GI50", "setting": "NCI-H226", "value": 7.82, "unit": "µM"}, {"measurement": "CC50", "setting": "NCI-H226; read-out: LC50", "value": 24.7, "unit": "µM"}, {"measurement": "GI50", "setting": "NCI-H23", "value": 11.2, "unit": "µM"}, {"measurement": "CC50", "setting": "NCI-H23; read-out: LC50", "value": 24.2, "unit": "µM"}, {"measurement": "GI50", "setting": "NCI-H322M", "value": 11.6, "unit": "µM"}, {"measurement": "CC50", "setting": "NCI-H322M; read-out: LC50", "value": 24.3, "unit": "µM"}, {"measurement": "GI50", "setting": "HCT-15", "value": 3.22, "unit": "µM"}, {"measurement": "CC50", "setting": "HCT-15; read-out: LC50", "value": 11.9, "unit": "µM"}, {"measurement": "GI50", "setting": "SW-620", "value": 2.24, "unit": "µM"}, {"measurement": "CC50", "setting": "SW-620; read-out: LC50", "value": 5.06, "unit": "µM"}, {"measurement": "GI50", "setting": "SF-295", "value": 11.3, "unit": "µM"}, {"measurement": "CC50", "setting": "SF-295; read-out: LC50", "value": 23.5, "unit": "µM"}, {"measurement": "GI50", "setting": "MALME-3M", "value": 14.2, "unit": "µM"}, {"measurement": "CC50", "setting": "MALME-3M; read-out: LC50", "value": 27.5, "unit": "µM"}, {"measurement": "GI50", "setting": "MDA-MB-435", "value": 2.86, "unit": "µM"}, {"measurement": "CC50", "setting": "MDA-MB-435; read-out: LC50", "value": 8.49, "unit": "µM"}, {"measurement": "GI50", "setting": "IGROV1", "value": 12.3, "unit": "µM"}, {"measurement": "CC50", "setting": "IGROV1; read-out: LC50", "value": 24.9, "unit": "µM"}, {"measurement": "GI50", "setting": "OVCAR-4", "value": 8.78, "unit": "µM"}, {"measurement": "CC50", "setting": "OVCAR-4; read-out: LC50", "value": 23.1, "unit": "µM"}, {"measurement": "GI50", "setting": "OVCAR-5", "value": 12, "unit": "µM"}, {"measurement": "CC50", "setting": "OVCAR-5; read-out: LC50", "value": 24.4, "unit": "µM"}, {"measurement": "GI50", "setting": "OVCAR-8", "value": 12.3, "unit": "µM"}, {"measurement": "CC50", "setting": "OVCAR-8; read-out: LC50", "value": 30.6, "unit": "µM"}, {"measurement": "GI50", "setting": "NCI/ADR-RES", "value": 10.7, "unit": "µM"}, {"measurement": "CC50", "setting": "NCI/ADR-RES; read-out: LC50", "value": 23.7, "unit": "µM"}, {"measurement": "GI50", "setting": "SK-OV-3", "value": 13.7, "unit": "µM"}, {"measurement": "CC50", "setting": "SK-OV-3; read-out: LC50", "value": 27.8, "unit": "µM"}, {"measurement": "GI50", "setting": "ACHN", "value": 5.08, "unit": "µM"}, {"measurement": "CC50", "setting": "ACHN; read-out: LC50", "value": 17.4, "unit": "µM"}, {"measurement": "GI50", "setting": "RXF 393", "value": 3.7, "unit": "µM"}, {"measurement": "CC50", "setting": "RXF 393; read-out: LC50", "value": 16, "unit": "µM"}, {"measurement": "GI50", "setting": "TK-10", "value": 17.4, "unit": "µM"}, {"measurement": "CC50", "setting": "TK-10; read-out: LC50", "value": 32, "unit": "µM"}, {"measurement": "GI50", "setting": "DU-145", "value": 11.2, "unit": "µM"}, {"measurement": "CC50", "setting": "DU-145; read-out: LC50", "value": 24, "unit": "µM"}, {"measurement": "GI50", "setting": "MCF7", "value": 1.7, "unit": "µM"}, {"measurement": "CC50", "setting": "MCF7; read-out: LC50", "value": 3.56, "unit": "µM"}, {"measurement": "GI50", "setting": "BT-549", "value": 12.7, "unit": "µM"}, {"measurement": "CC50", "setting": "BT-549; read-out: LC50", "value": 25.6, "unit": "µM"}]}]}
